This note sets out measurements from patent publication US10160771B2, “Hepatitis C virus inhibitors and uses thereof in preparation of drugs” (priority 2014, dated 2018).

A short description of data set [1]: Cell Titer-fluor cell activity assay in HCV-1b replicon cells (CC50). In kind it is cell-based. A digest of the protocol: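 CC50 derived by nonlinear fitting of inhibition % from Cell Titer-fluor signal (405/515 nm, 30 min). Cells: genotype 1b Con1 replicon carrying E1202G, T1280I, K1846T, seeded 8000/well with compound for 3 days, 37 °C, 0.5% DMSO; 6 points, 5-fold dilution, top 100, 10 or 1 nM, duplicates.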

The subject of data set [2] is HCV genotype 1b (HCV-1b) replicon cells. Put plainly: HCV genotype 1b replicon luciferase assay (EC50). In kind it is cell-based, hepatitis C virus genotype 1b (Con1 clone). To be noted: 3 days, luciferase (Bright-Glo). A digest of the protocol: (§1)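 EC50 by nonlinear fitting of % inhibition from Bright-Glo luciferase signal after 3-day, 37° C. compound exposure (5-fold, 6 points from 100, 10 or 1 nM; 0.5% DMSO; duplicates). Cells: 1a replicon from H77 (K1691R/K2040R/S2204I) or 1b from Con1 (E1202G/T1280I/K1846T), 8000 per well.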
In general terms: A replicon is a self-replicating genome or part of one, used to study replication in cells.

Data set [3] relates to HCV genotype 1a (HCV-1a) replicon cells. Put plainly: HCV genotype 1a replicon luciferase assay (EC50). Type of data set: cell-based, hepatitis C virus genotype 1a (H77 clone). To be noted: 3 days, luciferase (Bright-Glo). Summed up: as §1

The term CC50 denotes the concentration at which the toxic effect on the cells reaches its halfway point. A lower CC50 goes with harm at low concentration. As usually defined, the EC50 is the midpoint of the concentration-response curve.

`COC(=O)N[C@H](C(=O)N1CCC[C@@H]1c1[nH]c(-c2ccc(-c3ccc(-c4cnc([C@@H]5CCCN5C(=O)[C@@H](NC(=O)OC)C(C)C)[nH]4)cc3)cc2)c2c1CCCO2)C(C)C` [AG_114_B] gave a CC50 at 3 days in data set [1] of more than 1 nM. The EC50 is 0.101 to 1 nM in data set [2] (Hepatitis C virus, 72 h) and 10 to 100 nM in data set [3] (Hepatitis C virus, 72 h).
On the same counts, the results for `COC(=O)N[C@H](C(=O)N1CCC[C@H]1c1ncc(-c2ccc(-c3ccc(-c4cnc([C@@H]5C6CCC(C6)[C@H]5C(=O)NCc5ccc(N)cc5)[nH]4)cc3)cc2)[nH]1)C(C)C` (stereo partly drawn) [AA_210_B] are more than 1 nM, 0.001 to 0.1 nM and 10 to 100 nM.
On the same counts, the results for `COC(=O)N[C@H](C(=O)N1CCC[C@H]1c1ncc(-c2ccc(-c3ccc(-c4cnc([C@H]5C6CCC(C6)[C@@H]5C(=O)NCc5ccc(N)cc5)[nH]4)cc3)cc2)[nH]1)C(C)C` (stereo partly drawn) [AA_210_A] are more than 1 nM, 0.001 to 0.1 nM and 10 to 100 nM.
`COC(=O)N[C@H](C(=O)N1CCC[C@H]1c1ncc(-c2ccc(-c3ccc(-c4cnc([C@@H]5C6CCC(C6)[C@H]5C(=O)NCc5cccnc5C(C)C)[nH]4)cc3)cc2)[nH]1)C(C)C` (stereo partly drawn) [AA_215_B] returned a CC50 at 3 days in data set [1] of more than 1 nM. Besides, the EC50 in data set [2] (Hepatitis C virus, 72 h) lay in the range of 0.001 to 0.1 nM; in data set [3] (Hepatitis C virus, 72 h), 10 to 100 nM.
On the same counts, the results for `COC(=O)N[C@H](C(=O)N1CCC[C@H]1c1ncc(-c2ccc(-c3ccc(-c4cnc([C@H]5C6CCC(C6)[C@@H]5C(=O)NCc5cccnc5)[nH]4)cc3)c(F)c2)[nH]1)C(C)C` (stereo partly drawn) [AA_197_A] are more than 1 nM, 0.001 to 0.1 nM and 1 to 10 nM.
`COC(=O)N[C@H](C(=O)N1CCC[C@H]1c1ncc(-c2ccc(-c3ccc(-c4cnc(C5C6CCC(C6)[C@H]5C(=O)NCc5cccnc5F)[nH]4)cc3)cc2)[nH]1)[C@@H](C)OC` (stereo partly drawn) [AA_252_B]: the CC50 at 3 days in data set [1] was more than 1 nM. The EC50 was 0.001 to 0.1 nM in data set [2] (Hepatitis C virus, 72 h) and 1 to 10 nM in data set [3] (Hepatitis C virus, 72 h).
`COC(=O)N[C@H](C(=O)N1CCC[C@H]1c1ncc(-c2ccc(-c3ccc(-c4cnc([C@@H]5C6CCC(C6)[C@H]5C(=O)NCc5cccs5)[nH]4)cc3)cc2)[nH]1)C(C)C` (stereo partly drawn) [AA_196_B] gave a CC50 at 3 days in data set [1] of more than 1 nM. The EC50 lay within 0.001 to 0.1 nM in data set [2] (Hepatitis C virus, 72 h) and 10 to 100 nM in data set [3] (Hepatitis C virus, 72 h).
The molecule `CCOC(=O)CNC(=O)[C@@H](NC(=O)[C@@H]1[C@@H]2CC[C@@H](C2)[C@H]1c1ncc(-c2ccc(-c3ccc(-c4cnc([C@@H]5CCCN5C(=O)[C@@H](NC(=O)OC)C(C)C)[nH]4)cc3)cc2)[nH]1)C(C)C` [AA_301_ENDOA2] gave a cytotoxic concentration (CC50) at 3 days in data set [1] of more than 1 nM. The EC50 fell in the range of 0.101 to 1 nM in data set [2] (Hepatitis C virus, 72 h) and 10 to 100 nM in data set [3] (Hepatitis C virus, 72 h).
For `COC(=O)N[C@H](C(=O)N1CCC[C@H]1c1ncc(-c2ccc(-c3ccc(-c4cnc([C@H]5C6CCC(C6)[C@@H]5C(=O)NCc5ccc(F)nc5)[nH]4)cc3)cc2)[nH]1)C(C)C` (stereo partly drawn) [AA_214_A], the CC50 at 3 days in data set [1] is more than 1 nM. Also, the EC50 in data set [2] (Hepatitis C virus, 72 h) is 0.001 to 0.1 nM; in data set [3] (Hepatitis C virus, 72 h), 1 to 10 nM.
As for `COC(=O)N[C@H](C(=O)N1CCC[C@H]1c1ncc(-c2ccc(-c3ccc(-c4[nH]c([C@@H]5CCCN5C(=O)[C@@H](NC(=O)OC)[C@@H](C)OC)c5c4CCCC5)cc3)cc2)[nH]1)C(C)C` [AG_078_A], in data set [1], the CC50 at 3 days is more than 5 nM. Further, the EC50 in data set [2] (Hepatitis C virus, 72 h) fell in the range of 0.001 to 0.1 nM; in data set [3] (Hepatitis C virus, 72 h), 10 to 100 nM.
Take `COC(=O)N[C@H](C(=O)N1CCC[C@H]1c1ncc(-c2ccc(-c3ccc(-c4cnc(C5C6CCC(C6)[C@H]5C(=O)NCc5ccccn5)[nH]4)cc3)cc2)[nH]1)[C@@H](C)OC` (stereo partly drawn) [AA_221_A]: the CC50 at 3 days in data set [1] was more than 1 nM. The EC50 in data set [2] (Hepatitis C virus, 72 h) lay within 0.001 to 0.1 nM; in data set [3] (Hepatitis C virus, 72 h) it was 1 to 10 nM.
In data set [1], `COC(=O)N[C@H](C(=O)N1CCC[C@H]1c1ncc(-c2ccc(-c3ccc(-c4[nH]c(C5CCCN5C(=O)[C@@H]5COC(=O)N5)c5c4CCC5)cc3)cc2)[nH]1)C(C)C` (stereo partly drawn) [AG_084_A] showed a CC50 at 3 days of more than 1 nM. Also, the EC50 in data set [2] (Hepatitis C virus, 72 h) was in the range of 0.101 to 1 nM; in data set [3] (Hepatitis C virus, 72 h), 1 to 10 nM.
On the same counts, the results for `COC(=O)N[C@H](C(=O)N1CCC[C@H]1c1ncc(-c2ccc(-c3ccc(-c4cnc([C@H]5C6CCC(C6)[C@@H]5C(=O)NC(CO)c5ccccn5)[nH]4)cc3)cc2)[nH]1)C(C)C` (stereo partly drawn) [AA_243_A] are more than 1 nM, 0.001 to 0.1 nM and 10 to 100 nM.
`COC(=O)N[C@H](C(=O)N1CCC[C@H]1c1ncc(-c2ccc(-c3ccc(-c4cnc(C5C6CCC(C6)[C@@H]5C(=O)NCc5cncnc5)[nH]4)cc3)cc2)[nH]1)[C@@H](C)OC` (stereo partly drawn) [AA_249_A] registered a CC50 at 3 days in data set [1] of more than 1 nM. The 50% effective concentration (EC50) lay within 0.001 to 0.1 nM in data set [2] (Hepatitis C virus, 72 h) and 0.101 to 1 nM in data set [3] (Hepatitis C virus, 72 h).
Consider `COC(=O)N[C@H](C(=O)N1CCC[C@H]1c1ncc(-c2ccc(-c3ccc(-c4cnc([C@H]5CCCC[C@@H]5C(=O)NCc5cncc(C)c5)[nH]4)cc3)cc2)[nH]1)C(C)C` [AA_184], for which the CC50 at 3 days in data set [1] is more than 5 nM. Also, the EC50 was in the range of 0.101 to 1 nM in data set [2] (Hepatitis C virus, 72 h) and 10 to 100 nM in data set [3] (Hepatitis C virus, 72 h).
In the case of `COC(=O)N[C@H](C(=O)N1CCC[C@H]1c1ncc(-c2ccc(-c3ccc(-c4cnc([C@H]5C6CCC(C6)[C@@H]5C(=O)NCc5cccc(N)c5)[nH]4)cc3)cc2)[nH]1)C(C)C` (stereo partly drawn) [AA_199_A], the CC50 at 3 days in data set [1] was more than 1 nM. In addition, the EC50 in data set [2] (Hepatitis C virus, 72 h) was in the range of 0.001 to 0.1 nM; in data set [3] (Hepatitis C virus, 72 h), 1 to 10 nM.
Turning to `COC(=O)N[C@H](C(=O)N1CCC[C@H]1c1ncc(-c2ccc(-c3ccc(-c4cnc(C5[C@H]6CC[C@H](C6)[C@H]5C(=O)NCc5cccnc5F)[nH]4)cc3)cc2)[nH]1)C(C)C` (stereo partly drawn) [AA_224_ENDOA2], the CC50 at 3 days in data set [1] was more than 1 nM. For the same molecule, the EC50 in data set [2] (Hepatitis C virus, 72 h) was 0.001 to 0.1 nM; in data set [3] (Hepatitis C virus, 72 h), 0.101 to 1 nM.
On the same counts, the results for `COC(=O)N[C@H](C(=O)N1C[C@@H](OC)C[C@H]1c1ncc(-c2ccc(-c3ccc(-c4cnc([C@@H]5C6CCC(C6)[C@H]5C(=O)NCc5cccnc5)[nH]4)cc3)cc2)[nH]1)[C@@H](C)OC` (stereo partly drawn) [AA_231_A] are more than 1 nM, 0.001 to 0.1 nM and 0.101 to 1 nM.
In data set [1], `COC(=O)N[C@H](C(=O)N1CCCC1c1ccc(-c2ccc(-c3ccc(-c4cnc([C@@H]5CCCN5C(=O)[C@@H](NC(=O)OC)[C@@H](C)OC)[nH]4)cc3)cc2)[nH]1)[C@@H](C)OC` (single isomer, unassigned) [AG_072_A] gave a CC50 at 3 days of more than 1 nM. Also, the EC50 in data set [2] and in data set [3] was 0.001 to 0.1 nM each time.
`COC(=O)N[C@H](C(=O)N1CCC[C@H]1c1ncc(-c2ccc(-c3ccc(-c4cnc(C5C6CCC(C6)[C@@H]5C(=O)NC(C)c5cccnc5)[nH]4)cc3)cc2)[nH]1)[C@@H](C)OC` (stereo partly drawn) [AA_251_C] displayed a CC50 at 3 days in data set [1] of more than 1 nM. The EC50 in data set [2] (Hepatitis C virus, 72 h) is 1 to 10 nM; in data set [3] (Hepatitis C virus, 72 h), 10 to 100 nM.
For `COC(=O)N[C@H](C(=O)N1CCC[C@H]1c1ncc(-c2ccc(-c3ccc(-c4cnc(C5C6CCC(C6)[C@H]5C(=O)NCc5cccnc5SC)[nH]4)cc3)cc2)[nH]1)[C@@H](C)OC` (stereo partly drawn) [AA_260_B], the CC50 at 3 days in data set [1] was more than 1 nM. For the same molecule, the EC50 fell in the range of 0.001 to 0.1 nM in data set [2] (Hepatitis C virus, 72 h) and 10 to 100 nM in data set [3] (Hepatitis C virus, 72 h).
In turn, `COC(=O)N[C@H](C(=O)N1CCC[C@H]1c1ncc(-c2ccc(-c3ccc(-c4cnc([C@H]5C6CCC(C6)[C@@H]5C(=O)NCc5cncnc5)[nH]4)cc3)cc2)[nH]1)C(C)C` (stereo partly drawn) [AA_201_A] gave a CC50 at 3 days in data set [1] of more than 1 nM. Further, the EC50 in data set [2] (Hepatitis C virus, 72 h) lay in the range of 0.001 to 0.1 nM; in data set [3] (Hepatitis C virus, 72 h) it was 0.101 to 1 nM.
Turning to `COC(=O)N[C@H](C(=O)N1CCC[C@H]1c1ncc(-c2ccc(-c3ccc(-c4cnc([C@@H]5[C@H]6CC[C@H](C6)[C@H]5C(=O)N[C@H](C)c5cccnc5)[nH]4)cc3)cc2)[nH]1)C(C)C` [AA_204_ENDOA2_B], the CC50 at 3 days in data set [1] was more than 1 nM. The EC50 in data set [2] (Hepatitis C virus, 72 h) was in the range of 0.001 to 0.1 nM; in data set [3] (Hepatitis C virus, 72 h) it was 1 to 10 nM.
`COC(=O)N[C@H](C(=O)N1CCC[C@H]1c1ncc(-c2ccc(-c3ccc(-c4cnc(C5C6CCC(C6)[C@@H]5C(=O)NCc5cccnc5C5CC5)[nH]4)cc3)cc2)[nH]1)[C@@H](C)OC` (stereo partly drawn) [AA_256_A] came in with a CC50 at 3 days in data set [1] of more than 1 nM. The EC50 in data set [2] (Hepatitis C virus, 72 h) lay in the range of 0.001 to 0.1 nM; in data set [3] (Hepatitis C virus, 72 h), 10 to 100 nM.
